Assay results reported in patent US20040176370A1, “3,4-Dihdro-N-[[1-(3-hydroxybutyl)-4-piperidinyl]methyl]-2H-[1,3]oxazino[3,2-a]indole-10-carboxamide as 5-HT(4) receptor antagonist” (SmithKline Beecham p.l.c., priority 1998, published 2004).

Columns and labels:
[1] = tested on: DMPP-evoked contractions (nicotinic receptor agonist); assay: Selectivity test: cholinergically-mediated contractions of guinea-pig colon evoked by the nicotinic receptor agonist DMPP; type: cell-based; conditions: guinea-pig colon LMMP, dose response curve to DMPP
Protocol: To test for selectivity of action, compounds are tested for their ability to antagonise cholinergically-mediated contractions of the guinea-pic colon, evoked by the nicotinic receptor agonist, DMPP (1,1-dimethyl-4-phenyl-piperazinium iodide). For these experiments, tissues and equipment are set up as for the above, 5HT4 receptor experiments. After sensitization, non-cumulative dose response curves are constructed to DMPP. Test compounds are incubated with the tissues as above, and a second dose response curve to DMPP created. Results are given as mean pKB±SEM values for each antagonists.

5-HT4 receptor = biological target: T1, 5-HT4 receptor (Cavia porcellus, UniProt O70528); assay: 5-HT4 receptor antagonist activity: 5-HT-evoked contractions of guinea-pig distal colon LMMP preparations; type: cell-based; conditions: antagonism of 5-HT dose response curve, 45 minutes incubation
T1 construct: Longitudinal muscle-myenteric plexus (LMMP) preparations, 2-3 cm long, are obtained from the distal colon region; from tissue; host or cells: guinea-pig distal colon longitudinal muscle-myenteric plexus (LMMP)
T1 sequence (O70528 whole entry): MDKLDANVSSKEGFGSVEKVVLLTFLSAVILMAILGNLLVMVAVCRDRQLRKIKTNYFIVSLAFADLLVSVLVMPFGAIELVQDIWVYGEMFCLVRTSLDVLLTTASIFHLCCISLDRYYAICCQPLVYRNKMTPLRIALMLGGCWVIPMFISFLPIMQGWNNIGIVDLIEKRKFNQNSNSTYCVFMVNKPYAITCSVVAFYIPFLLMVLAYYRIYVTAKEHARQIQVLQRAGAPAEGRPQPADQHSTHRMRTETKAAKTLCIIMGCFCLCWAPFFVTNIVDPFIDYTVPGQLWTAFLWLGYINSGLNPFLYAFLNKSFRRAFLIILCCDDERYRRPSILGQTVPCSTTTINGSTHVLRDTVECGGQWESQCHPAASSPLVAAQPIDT
Protocol: 5-HT4 RECEPTOR ANTAGONIST ACTIVITY
Male Dunkin Hartley guinea-pigs, weighing 200-300 g are used. Longitudinal muscle-myenteric plexus (LMMP) preparations, 2-3 cm long, are obtained from the distal colon region. These are suspended under a 0.5 g load in isolated tissue baths containing Krebs Henseleit solution (NaCl 118 mM, KCl 4.7 mM KH2PO4 1.2 mM MgSO4 7H2O 1.2 mM, Glucose 11.1 mM, NaHCO3 25 mM, CaCl2 6H2O 2.5 mM) bubbled with 5% CO2 in O2, maintained at 37° C. and containing 1 uM Granisetron and 0.1 uM Methiothepin to block 5HT3 and 5HT1-like receptors respectively. 100 uM Pargyline is also added to the tissues at the start of the experiment. Tissues are left for 15 minutes to equilibrate and then exposed to 5-HT at 0.1 uM every 15 minutes until a uniform response is achieved. Following a half hour period for tissues to stabilise, non-cumulative dose response curves to 5-HT are constructed in all tissues. When base-lines have returned to normal, test compounds are added in the reservoirs of the tissue set-ups and washed in to the tissues. Tissues are incubated with the antagonists for 45 minutes after which a second non-cumulative dose response curve to 5-HT is constructed. […]

CC(O)CCN1CCC(CNC(=O)c2c3n(c4ccccc24)CCCO3)CC1 (racemic) [compound of formula (I), 3,4dihydro-N-[[1-(3-hydroxybutyl)-4-piperidinyl]methyl]-2H-[1,3]oxazino[3,2-α]indole-10-carboxamide]
effect on DMPP-evoked contractions [1]: did not significantly affect
Kb (5-HT4 receptor): 0.501 nM
